Test results reported in patent US20250032524A1, “BROAD SPECTRUM AMINOGLYCOSIDES AND USES THEREOF” (REVAGENIX, INC., priority 2022, published 2025).
Read-outs that look alike come from different tables or passages of the source.

What was measured:
Test in all cases: MIC broth microdilution (CLSI)
Type in all cases: cell-based
[1] = tested on: E. cloacae; details: Enterobacter cloacae; strain AECL1089, MDR Clinical isolate (CDC CRE panel), CDC AR Bank 0154
Procedure, shortened: (§1)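 2-fold serially diluted compound in cation-adjusted MHB, inoculated at 5×10^5 CFU/mL from 0.5 McFarland suspensions. Incubation: 35° C., ambient air, 18-24 hours. Endpoint: no visible growth (OD 600 nm<0.05); assay controlled with CLSI quality-control strains and neomycin.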

[2] = tested on: S. enterica; details: Salmonella enterica, read-out: Activity (MIC)
Procedure, shortened: as §1

[3] = tested on: A. baumannii; details: Acinetobacter baumannii
Procedure, shortened: as §1

[4] = tested on: S. aureus; details: for MIC: Staphylococcus aureus
Procedure, shortened: as §1

[5] = read-out: Activity (MIC), strain NABA0007, ΔadeJK efflux
[6] = read-out: Activity (MIC), strain NABA1427, MDR Clinical isolate
[7] = read-out: Activity (MIC), strain NABA1433, MDR Clinical isolate
[8] = read-out: Activity (MIC), strain NABA1434, MDR Clinical isolate
[9] = read-out: Activity (MIC), strain NABA1436, MDR Clinical isolate
[10] = read-out: Activity (MIC), strain NABA1437, MDR Clinical isolate
[11] = read-out: Activity (MIC), strain NABA1438, MDR Clinical isolate
[12] = read-out: Activity (MIC), strain NABA1439, MDR Clinical isolate
[13] = read-out: Activity (MIC), strain NABA1448, MDR Clinical isolate
[14] = read-out: Activity (MIC), strain NABA1449, MDR Clinical isolate
[15] = read-out: Activity (MIC), strain NABA1450, MDR Clinical isolate
[16] = strain NABA0006, WT parent, read-out: Activity (MIC)
[17] = strain NABA0020, AME negative strain, read-out: Activity (MIC)
[18] = ATCC29213, strain NSAU001, wild-type, QC, ATCC 29213
[19] = strain NSAU1004, MDR Clinical isolate
[20] = strain NSAU1015, MDR Clinical isolate
[21] = strain NSAU1023, MDR Clinical isolate
[22] = strain NSAU1063, MDR Clinical isolate

Structure (SMILES): NCC[C@H](O)C(=O)N[C@@H]1[C@@H](O)[C@H](N)[C@@H](O[C@H]2O[C@H](CN)CC[C@H]2N)[C@H](O[C@@H]2O[C@H](CO)[C@@H](O[C@H]3O[C@@H](CN)[C@@H](O)[C@H](O)[C@H]3N)[C@H]2O)[C@H]1O [Compound 2, (S)-4-amino-N-((1R,2S,3S,4R,5R,6S)-3-amino-5-(((2S,3R,4S,5R)-4-(((2R,3R,4R,5S,6S)-3-amino-6-(aminomethyl)-4,5-dihydroxytetrahydro-2H-pyran-2-yl)oxy)-3-hydroxy-5-(hydroxymethyl)tetrahydrofuran-2-yl)oxy)-4-(((2R,3R,6S)-3-amino-6-(aminomethyl)tetrahydro-2H-pyran-2-yl)oxy)-2,6-dihydroxycyclohexyl)-2-hydroxybutanamide]
- MIC [1]: < 16 µg/mL
- MIC [2]: < 16 µg/mL
- MIC [3, 5]: < 16 µg/mL
- MIC [3, 6]: < 16 µg/mL
- MIC [3, 7]: < 16 µg/mL
- MIC [3, 8]: < 16 µg/mL
- MIC [3, 9]: < 16 µg/mL
- MIC [3, 10]: < 16 µg/mL
- MIC [3, 11]: < 16 µg/mL
- MIC [3, 12]: < 16 µg/mL
- MIC [3, 13]: < 16 µg/mL
- MIC [3, 14]: < 16 µg/mL
- MIC [3, 15]: < 16 µg/mL
- MIC [3, 16]: < 16 µg/mL
- MIC [3, 17]: < 16 µg/mL
- MIC [4, 18]: < 16 µg/mL
- MIC [4, 19]: < 16 µg/mL
- Activity (MIC) [4, 20]: + (MIC threshold for positive activity (+) is ≤16 μg/mL)
- Activity (MIC) [4, 21]: + (MIC threshold for positive activity (+) is ≤16 μg/mL)
- Activity (MIC) [4, 22]: + (MIC threshold for positive activity (+) is ≤16 μg/mL)

Structure (SMILES): C[C@H](N)[C@@H]1CC[C@@H](N)[C@@H](O[C@@H]2[C@@H](N)[C@H](O)[C@@H](NC(=O)[C@@H](O)CCN)[C@H](O)[C@H]2O[C@@H]2O[C@H](CO)[C@@H](O[C@H]3O[C@@H](CN)[C@@H](O)[C@H](O)[C@H]3N)[C@H]2O)O1 [Compound 6, (S)-4-Amino-N-((1R,2S,3S,4R,5R,6S)-3-Amino-4-(((2R,3R,6S)-3-Amino-6-((S)-1-Aminoethyl)Tetrahydro-2H-Pyran-2-Yl)Oxy)-5-(((2S,3R,4S,5R)-4-(((2R,3R,4R,5S,6S)-3-Amino-6-(Aminomethyl)-4,5-Dihydroxytetrahydro-2H-Pyran-2-Yl)Oxy)-3-Hydroxy-5-(Hydroxymethyl)Tetrahydrofuran-2-Yl)Oxy)-2,6-Dihydroxycyclohexyl)-2-Hydroxybutanamide]
- MIC [1]: < 16 µg/mL
- MIC [2]: < 16 µg/mL
- MIC [3, 5]: < 16 µg/mL
- MIC [3, 6]: < 16 µg/mL
- MIC [3, 7]: < 16 µg/mL
- MIC [3, 8]: < 16 µg/mL
- MIC [3, 9]: < 16 µg/mL
- MIC [3, 10]: < 16 µg/mL
- MIC [3, 11]: < 16 µg/mL
- MIC [3, 12]: < 16 µg/mL
- MIC [3, 13]: < 16 µg/mL
- MIC [3, 14]: < 16 µg/mL
- MIC [3, 15]: < 16 µg/mL
- MIC [3, 16]: < 16 µg/mL
- MIC [3, 17]: < 16 µg/mL
- MIC [4, 18]: < 16 µg/mL
- MIC [4, 19]: < 16 µg/mL
- Activity (MIC) [4, 20]: + (MIC threshold for positive activity (+) is ≤16 μg/mL)
- Activity (MIC) [4, 21]: + (MIC threshold for positive activity (+) is ≤16 μg/mL)
- Activity (MIC) [4, 22]: + (MIC threshold for positive activity (+) is ≤16 μg/mL)

Structure (SMILES): NC[C@@H]1CC[C@@H](N)[C@@H](O[C@@H]2[C@@H](N)[C@H](O)[C@@H](NC(=O)[C@@H](O)[C@H](F)CN)[C@H](O)[C@H]2O[C@@H]2O[C@H](CO)[C@@H](O[C@H]3O[C@@H](CN)[C@@H](O)[C@H](O)[C@H]3N)[C@H]2O)O1 [Compound 1, (2R,3R)-4-amino-N-((1R,2S,3S,4R,5R,6S)-3-amino-5-(((2S,3R,4S,5R)-4-(((2R,3R,4R,5S,6S)-3-amino-6-(aminomethyl)-4,5-dihydroxytetrahydro-2H-pyran-2-yl)oxy)-3-hydroxy-5-(hydroxymethyl)tetrahydrofuran-2-yl)oxy)-4-(((2R,3R,6S)-3-amino-6-(aminomethyl)tetrahydro-2H-pyran-2-yl)oxy)-2,6-dihydroxycyclohexyl)-3-fluoro-2-hydroxybutanamide]
- MIC [1]: < 16 µg/mL
- MIC [2]: < 16 µg/mL
- MIC [3, 5]: < 16 µg/mL
- MIC [3, 6]: < 16 µg/mL
- MIC [3, 7]: < 16 µg/mL
- MIC [3, 8]: < 16 µg/mL
- MIC [3, 9]: < 16 µg/mL
- MIC [3, 10]: < 16 µg/mL
- MIC [3, 11]: < 16 µg/mL
- MIC [3, 12]: < 16 µg/mL
- MIC [3, 13]: < 16 µg/mL
- MIC [3, 14]: < 16 µg/mL
- MIC [3, 15]: < 16 µg/mL
- MIC [3, 16]: < 16 µg/mL
- MIC [3, 17]: < 16 µg/mL
- MIC [4, 18]: < 16 µg/mL
- MIC [4, 19]: < 16 µg/mL
- Activity (MIC) [4, 20]: + (MIC threshold for positive activity (+) is ≤16 μg/mL)
- Activity (MIC) [4, 21]: + (MIC threshold for positive activity (+) is ≤16 μg/mL)
- Activity (MIC) [4, 22]: + (MIC threshold for positive activity (+) is ≤16 μg/mL)

Structure (SMILES): C[C@H](N)[C@@H]1CC[C@@H](N)[C@@H](O[C@@H]2[C@@H](N)[C@H](O)[C@@H](NC(=O)[C@@H](O)[C@H](F)CN)[C@H](O)[C@H]2O[C@@H]2O[C@H](CO)[C@@H](O[C@H]3O[C@@H](CN)[C@@H](O)[C@H](O)[C@H]3N)[C@H]2O)O1 [Compound 3, (2R,3R)-4-amino-N-((1R,2S,3S,4R,5R,6S)-3-amino-4-(((2R,3R,6S)-3-amino-6-((S)-1-aminoethyl)tetrahydro-2H-pyran-2-yl)oxy)-5-(((2S,3R,4S,5R)-4-(((2R,3R,4R,5S,6S)-3-amino-6-(aminomethyl)-4,5-dihydroxytetrahydro-2H-pyran-2-yl)oxy)-3-hydroxy-5-(hydroxymethyl)tetrahydrofuran-2-yl)oxy)-2,6-dihydroxycyclohexyl)-3-fluoro-2-hydroxybutanamide]
- MIC [1]: < 16 µg/mL
- MIC [2]: < 16 µg/mL
- MIC [3, 5]: < 16 µg/mL
- MIC [3, 6]: < 16 µg/mL
- MIC [3, 7]: < 16 µg/mL
- MIC [3, 8]: < 16 µg/mL
- MIC [3, 9]: < 16 µg/mL
- MIC [3, 10]: < 16 µg/mL
- MIC [3, 11]: < 16 µg/mL
- MIC [3, 12]: < 16 µg/mL
- MIC [3, 13]: < 16 µg/mL
- MIC [3, 14]: < 16 µg/mL
- MIC [3, 15]: < 16 µg/mL
- MIC [3, 16]: < 16 µg/mL
- MIC [3, 17]: < 16 µg/mL
- MIC [4, 18]: < 16 µg/mL
- MIC [4, 19]: < 16 µg/mL
- Activity (MIC) [4, 20]: + (MIC threshold for positive activity (+) is ≤16 μg/mL)
- Activity (MIC) [4, 21]: + (MIC threshold for positive activity (+) is ≤16 μg/mL)
- Activity (MIC) [4, 22]: + (MIC threshold for positive activity (+) is ≤16 μg/mL)
